Earlier results in patent US9504685B2, “Method for treating a pulmonary hypertension condition” (Gilead Sciences, Inc., priority 2006, dated 2016).

Tested on: p450
Conditions: cited from earlier work

In the case of `COC(c1ccccc1)(c1ccccc1)[C@H](Oc1nc(C)cc(C)n1)C(=O)O` [ambrisentan], the “drug interactions (p450 induction or inhibition)” value is listed as “no p450 induction or inhibition”.
